# Biological target: T1, human GLP-1R (Homo sapiens, UniProt P43220)
# T1 construct: host or cells: HEK293
# Assay: GLP-1R cAMP assay (Example B1a, HTRF, 30 min at room temperature)
# Format: cell-based
# Conditions: cAMP accumulation in HEK293 expressing human GLP-1R, no BETP, 30 min room temperature (Method B1a, compounds ID 1-609), Table 1; read-out: EC50
# Summary of the method: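 Competitive HTRF read-out of cAMP after 30 min room-temperature stimulation, BETP absent, of human GLP-1R-HEK293 cells (1,000/well) in HEPES buffer with 500 μM IBMX and 0.1% BSA. Activation normalised to GLP-1(7-37) positive control. EC50 from 4-parameter non-linear regression.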
# T1 sequence (P43220 24-463): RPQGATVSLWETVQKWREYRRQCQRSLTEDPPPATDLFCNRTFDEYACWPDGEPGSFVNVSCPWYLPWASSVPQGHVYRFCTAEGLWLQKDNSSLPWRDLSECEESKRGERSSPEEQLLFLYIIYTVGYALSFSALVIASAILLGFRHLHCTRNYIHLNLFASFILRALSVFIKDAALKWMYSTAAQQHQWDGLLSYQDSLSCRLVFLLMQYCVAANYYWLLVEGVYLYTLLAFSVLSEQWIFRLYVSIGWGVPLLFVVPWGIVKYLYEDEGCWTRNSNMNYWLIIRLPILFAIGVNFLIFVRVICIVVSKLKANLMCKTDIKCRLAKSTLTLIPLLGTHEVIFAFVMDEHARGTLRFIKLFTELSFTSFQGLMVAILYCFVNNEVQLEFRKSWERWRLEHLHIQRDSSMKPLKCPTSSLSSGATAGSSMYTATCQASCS
row,Compound,EC50
1,"Cc1cc(-n2nc3c(c2-n2ccn(-c4ccc5c(cnn5C)c4F)c2=O)[C@H]2CC[C@@H](C3)N2C(=O)c2cc3cc([C@@H]4CCOC5(CC5)C4)ccc3n2[C@]2(c3noc(=O)[nH]3)C[C@@H]2C)cc(C)c1F [Compound 530, 3-[(1R,2S)-1-[2-[(1R,8S)-4-(4-fluoro-3,5-dimethyl-phenyl)-3-[3-(4-fluoro-1-methyl-indazol-5-yl)-2-oxo-imidazol-1-yl]-4,5,11-triazatricyclo[6.2.1.02,6]undeca-2,5-diene-11-carbonyl]-5-[(7R)-4-oxaspiro[2.5]octan-7-yl]indol-1-yl]-2-methyl-cyclopropyl]-4H-1,2,4-oxadiazol-5-one]",≥ 10000 nM
2,"Cc1cc(-n2nc3c(c2-n2ccn(-c4ccc5c(cnn5C)c4F)c2=O)[C@@H]2CC[C@H](C3)N2C(=O)c2cc3c(=O)n([C@@H]4CCOC(C)(C)C4)ccc3n2[C@@]2(c3noc(=O)[nH]3)C[C@@H]2C)cc(C)c1F [Compound 239, 3-[(1S,2S)-1-[5-[(4R)-2,2-dimethyltetrahydropyran-4-yl]-2-[(1S,8R)-4-(4-fluoro-3,5-dimethyl-phenyl)-3-[3-(4-fluoro-1-methyl-indazol-5-yl)-2-oxo-imidazol-1-yl]-4,5,11-triazatricyclo[6.2.1.02,6]undeca-2,5-diene-11-carbonyl]-4-oxo-pyrrolo[3,2-c]pyridin-1-yl]-2-methyl-cyclopropyl]-4H-1,2,4-oxadiazol-5-one]",> 10000 nM
3,"Cc1cc(-n2nc3c(c2-n2ccn(-c4ccc5[nH]ncc5c4F)c2=O)[C@@H]2CC[C@H](C3)N2C(=O)c2cc3cc([C@H]4CCOC(C)(C)C4)ccc3n2[C@@]2(c3noc(=O)[nH]3)C[C@@H]2C)cc(C)c1F [Compound 406, 3-((1S,2S)-1-(5-((S)-2,2-dimethyltetrahydro-2H-pyran-4-yl)-2-((4S,7R)-3-(3-(4-fluoro-1H-indazol-5-yl)-2-oxo-2,3-dihydro-1H-imidazol-1-yl)-2-(4-fluoro-3,5-dimethylphenyl)-2,4,5,6,7,8-hexahydro-4,7-epiminocyclohepta [c]pyrazole-9-carbonyl)-1H-indol-1-yl)-2-methylcyclopropyl)-1,2,4-oxadiazol-5 (4H)-one]",18.4 nM
4,"Cc1cc(-n2nc3c(c2-n2ccn(-c4ccc5c(cnn5C)c4F)c2=O)[C@@H]2CC[C@H](C3)N2C(=O)c2cc3c(=O)n([C@H]4CCOC(C)(C)C4)ccc3n2[C@@]2(c3noc(=O)[nH]3)C[C@@H]2C)cc(C)c1F [Compound 238, 3-[(1S,2S)-1-[5-[(4S)-2,2-dimethyltetrahydropyran-4-yl]-2-[(1S,8R)-4-(4-fluoro-3,5-dimethyl-phenyl)-3-[3-(4-fluoro-1-methyl-indazol-5-yl)-2-oxo-imidazol-1-yl]-4,5,11-triazatricyclo[6.2.1.02,6]undeca-2,5-diene-11-carbonyl]-4-oxo-pyrrolo[3,2-c]pyridin-1-yl]-2-methyl-cyclopropyl]-4H-1,2,4-oxadiazol-5-one]",> 10000 nM
5,"Cc1cc(-n2nc3c(c2-n2ccn(-c4ccc5c(cnn5C)c4F)c2=O)[C@@H]2CC[C@H](C3)N2C(=O)c2cc3cc(C4CCOCC4)ccc3n2[C@@]2(c3noc(=O)[nH]3)C[C@@H]2C)cc(C)c1F [Compound 208, 3-((1S,2S)-1-(2-((4S,7R)-3-(3-(4-fluoro-1-methyl-1H-indazol-5-yl)-2-oxo-2,3-dihydro-1H-imidazol-1-yl)-2-(4-fluoro-3,5-dimethylphenyl)-2,4,5,6,7,8-hexahydro-4,7-epiminocyclohepta [c]pyrazole-9-carbonyl)-5-(tetrahydro-2H-pyran-4-yl)-1H-indol-1-yl)-2-methylcyclopropyl)-1,2,4-oxadiazol-5 (4H)-one]",182 nM
6,"CNC(=O)[C@]1(n2c(C(=O)N3[C@@H]4CC[C@H]3c3c(nn(-c5cc(C)c(F)c(C)c5)c3-n3ccn(-c5ccc6c(cnn6C)c5F)c3=O)C4)cc3cc([C@H]4CCOC(C)(C)C4)ccc32)C[C@@H]1C [Compound 244, cis-(1S,2S)-1-[5-[(4S)-2,2-dimethyltetrahydropyran-4-yl]-2-[(1S,8R)-4-(4-fluoro-3,5-dimethyl-phenyl)-3-[3-(4-fluoro-1-methyl-indazol-5-yl)-2-oxo-imidazol-1-yl]-4,5,11-triazatricyclo[6.2.1.02,6]undeca-2,5-diene-11-carbonyl]indol-1-yl]-N,2-dimethyl-cyclopropanecarboxamide]",390 nM
7,"Cc1cc(-n2nc3c(c2-n2ccn(-c4ccc5c(cnn5C)c4Cl)c2=O)[C@@H]2COC[C@H](C3)N2C(=O)c2cc3cc(C4CCOC5(CC5)C4)ccc3n2[C@@]2(c3noc(=O)[nH]3)C[C@@H]2C)cc(C)c1F (stereo partly drawn) [Compound 230, 3-[(1S,2S)-1-[2-[(1R,8S)-3-[3-(4-chloro-1-methyl-indazol-5-yl)-2-oxo-imidazol-1-yl]-4-(4-fluoro-3,5-dimethyl-phenyl)-10-oxa-4,5,12-triazatricyclo[6.3.1.02,6]dodeca-2,5-diene-12-carbonyl]-5-(4-oxaspiro[2.5]octan-7-yl)indol-1-yl]-2-methyl-cyclopropyl]-4H-1,2,4-oxadiazol-5-one]",389 nM
8,"Cc1cc(-n2nc3c(c2-n2ccn(-c4ccc5c(cnn5C)c4F)c2=O)[C@@H]2CC[C@H](C3)N2C(=O)c2cc3cc([C@H]4CCOC(C)(C)C4)ccc3n2[C@@]2(C(=O)N(C)C)C[C@@H]2C)cc(C)c1F [Compound 240, cis-(1S,2S)-1-[5-[(4S)-2,2-dimethyltetrahydropyran-4-yl]-2-[(1S,8R)-4-(4-fluoro-3,5-dimethyl-phenyl)-3-[3-(4-fluoro-1-methyl-indazol-5-yl)-2-oxo-imidazol-1-yl]-4,5,11-triazatricyclo[6.2.1.02,6]undeca-2,5-diene-11-carbonyl]indol-1-yl]-N,N,2-trimethyl-cyclopropanecarboxamide]",618 nM
9,"Cc1cc(-n2nc3c(c2-n2ccn(-c4ccc5c(cnn5C)c4F)c2=O)[C@@H]2CC[C@H](C3)N2C(=O)c2cc3cc([C@H]4CCOC5(CC5)C4)ccc3n2[C@@]2(c3noc(=O)[nH]3)C[C@H]2C)cc(C)c1F [Compound 542, 3-((1S,2R)-1-(2-((4S,7R)-3-(3-(4-fluoro-1-methyl-1H-indazol-5-yl)-2-oxo-2,3-dihydro-1H-imidazol-1-yl)-2-(4-fluoro-3,5-dimethylphenyl)-2,4,5,6,7,8-hexahydro-4,7-epiminocyclohepta [c]pyrazole-9-carbonyl)-5-((S)-4-oxaspiro[2.5]octan-7-yl)-1H-indol-1-yl)-2-methylcyclopropyl)-1,2,4-oxadiazol-5 (4H)-one]",1620 nM
10,"Cc1cc(-n2nc3c(c2-n2ccn(-c4ccc5c(cnn5C)c4F)c2=O)CN(Cc2cc4cc([C@H]5CCOC(C)(C)C5)ccc4n2[C@@]2(c4noc(=O)[nH]4)C[C@@H]2C)CCC3)cc(C)c1F [Compound 432, 3-((1S,2S)-1-(5-((S)-2,2-dimethyltetrahydro-2H-pyran-4-yl)-2-((3-(3-(4-fluoro-1-methyl-1H-indazol-5-yl)-2-oxo-2,3-dihydro-1H-imidazol-1-yl)-2-(4-fluoro-3,5-dimethylphenyl)-2,6,7,8-tetrahydropyrazolo[4,3-c]azepin-5 (4H)-yl)methyl)-1H-indol-1-yl)-2-methylcyclopropyl)-1,2,4-oxadiazol-5(4H)-one]",284 nM
11,Cc1cc(-n2nc3c(c2-n2ccn(-c4ccc5c(cnn5C)c4F)c2=O)[C@@H]2CC[C@H](C3)N2C(=O)c2cc3cc(N4CC(C)(C)C=CC4=O)ccc3n2[C@@]2(c3noc(=O)[nH]3)C[C@@H]2C)cc(C)c1F [Compound 510],≥ 10000 nM
12,"Cc1cc(-n2nc3c(c2N2C(=O)CN(c4ccc5c(cnn5C)c4F)C2=O)[C@H]2CC[C@@H](C3)N2C(=O)c2cc3cc([C@H]4CCOC(C)(C)C4)ccc3n2[C@@]2(c3noc(=O)[nH]3)C[C@@H]2C)cc(C)c1F [Compound 234, 3-[(1R,8S)-11-[5-[(4S)-2,2-dimethyltetrahydropyran-4-yl]-1-[(1S,2S)-2-methyl-1-(5-oxo-4H-1,2,4-oxadiazol-3-yl)cyclopropyl]indole-2-carbonyl]-4-(4-fluoro-3,5-dimethyl-phenyl)-4,5,11-triazatricyclo[6.2.1.02,6]undeca-2,5-dien-3-yl]-1-(4-fluoro-1-methyl-indazol-5-yl)imidazolidine-2,4-dione]",> 10000 nM
13,"Cc1cc(-n2nc3c(c2-n2ccn(-c4cc(F)c5c(cnn5C)c4F)c2=O)[C@@H]2COC[C@H](C3)N2C(=O)c2cc3cc([C@H]4CCOC(C)(C)C4)ccc3n2[C@@]2(c3noc(=O)[nH]3)C[C@@H]2C)cc(C)c1F [Compound 224, 3-[(1S,2S)-1-[2-[(1R,8S)-3-[3-(4,7-difluoro-1-methyl-indazol-5-yl)-2-oxo-imidazol-1-yl]-4-(4-fluoro-3,5-dimethyl-phenyl)-10-oxa-4,5,12-triazatricyclo[6.3.1.02,6]dodeca-2,5-diene-12-carbonyl]-5-[(4S)-2,2-dimethyltetrahydropyran-4-yl]indol-1-yl]-2-methyl-cyclopropyl]-4H-1,2,4-oxadiazol-5-one]",212 nM
14,"Cc1cc(-n2nc3c(c2-n2ccn(-c4ccc5cnncc5c4)c2=O)[C@@H]2CC[C@H](C3)N2C(=O)c2cc3cc([C@H]4CCOC(C)(C)C4)ccc3n2C2(c3noc(=O)[nH]3)CC2)cc(C)c1F [Compound 124, 3-(1-(5-((S)-2,2-dimethyltetrahydro-2H-pyran-4-yl)-2-((4S,7R)-2-(4-fluoro-3,5-dimethylphenyl)-3-(2-oxo-3-(phthalazin-6-yl)-2,3-dihydro-1H-imidazol-1-yl)-2,4,5,6,7,8-hexahydro-4,7-epiminocyclohepta [c]pyrazole-9-carbonyl)-1H-indol-1-yl)cyclopropyl)-1,2,4-oxadiazol-5 (4H)-one]",1380 nM
15,"Cc1cc(-n2nc3c(c2-n2ccn(-c4ccc5nnccc5c4)c2=O)[C@@H]2CC[C@H](C3)N2C(=O)c2cc3cc([C@H]4CCOC(C)(C)C4)ccc3n2C2(c3noc(=O)[nH]3)CC2)cc(C)c1F [Compound 119, 3-[1-[2-[(1S,8R)-3-(3-cinnolin-6-yl-2-oxo-imidazol-1-yl)-4-(4-fluoro-3,5-dimethyl-phenyl)-4,5,11-triazatricyclo[6.2.1.02,6]undeca-2,5-diene-11-carbonyl]-5-[(4S)-2,2-dimethyltetrahydropyran-4-yl]indol-1-yl]cyclopropyl]-4H-1,2,4-oxadiazol-5-one]",2280 nM
